Results taken from patent US10144742B2 (Millennium Pharmaceuticals, Inc., priority 2014, dated 2018).
Read-outs that look alike come from different tables or passages of the source.

Assays:
PC3 cells = experiment: PC3 growth inhibition (Cell-titer glo, 72 hours); format: cell-based; conditions: Homo sapiens, PC-3, PC3 cells, 72 hours, Cell-titer glo, read-out: Percent Inhibition (PC3 growth inhibition); for inhibition at 1.667 µM: compound concentration 1.667 μM; for inhibition at 1 µM: compound concentration 1 μM
Method in brief: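 PC3 cells in RPMI1640 seeded overnight at 37 °C, 5% CO2, then exposed to compound diluted in AIM serum-free medium for 72 h. Viability by CellTiter-Glo luminescence vs DMSO controls; single-concentration % remaining viability (1 μM or 1.667 μM), or GI50/LD50 from curves.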

hNAMPT protein = hNAMPT protein (Homo sapiens (Human), UniProt P43490); experiment: NAMPT enzyme assay (TR-FRET/HTRF, BodiPY ligand, anti 6His-Tb); format: binding; conditions: for IC50: read-out: IC50; for inhibition at 1 µM: read-out: Percent Inhibition
Chain of hNAMPT protein (P43490 whole entry): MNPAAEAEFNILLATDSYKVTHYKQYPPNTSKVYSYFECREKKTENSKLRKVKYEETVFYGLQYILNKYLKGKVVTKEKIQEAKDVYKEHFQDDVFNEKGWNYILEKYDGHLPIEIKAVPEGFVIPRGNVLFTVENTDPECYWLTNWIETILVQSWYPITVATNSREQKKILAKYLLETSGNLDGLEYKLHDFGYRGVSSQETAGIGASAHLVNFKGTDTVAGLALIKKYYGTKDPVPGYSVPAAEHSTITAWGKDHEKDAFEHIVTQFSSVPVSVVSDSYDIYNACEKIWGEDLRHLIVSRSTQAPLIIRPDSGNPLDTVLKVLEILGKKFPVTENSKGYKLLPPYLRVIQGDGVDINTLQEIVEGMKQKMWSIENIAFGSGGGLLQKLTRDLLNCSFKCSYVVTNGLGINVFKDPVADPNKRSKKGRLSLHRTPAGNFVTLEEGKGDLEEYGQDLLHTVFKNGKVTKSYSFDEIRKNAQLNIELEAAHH
Method in brief: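 TR-FRET binding assay in which His-tagged human NAMPT with anti-6His-Tb is displaced by compound from a BodiPY ligand, incubated 1 h at rt in the dark. Excitation was at 320 nm, with the 520/486 nm emission ratio read. IC50 was fitted from inhibition relative to DMSO controls.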

[1] = NAMPT inhibition at compound concentration 1 μM
[2] = NAMPT inhibition, IC50 range class

SMILES	inhibition at 1.667 µM (PC3 cells) [%]	IC50 (hNAMPT protein; NAMPT IC50 range class) [nM]	inhibition at 1 µM (hNAMPT protein; compound concentration 1 μM) [%]	inhibition at 1 µM (PC3 cells) [%]	inhibition at 1 µM (hNAMPT protein; [1]) [%]	IC50 (hNAMPT protein; [2]) [nM]	inhibition at 1 µM (hNAMPT protein) [%]
O=C(NCCCc1ncc[nH]1)c1ccc2nc(OCc3c[nH]cn3)c(-c3ccc(F)cc3)nc2c1 [Compound I-356, 3-(4-fluorophenyl)-2-(1H-imidazol-4-ylmethoxy)-N-[3-(1H-imidazol-2-yl)propyl]quinoxaline-6-carboxamide]	4	500 to 1000	63				
CC(C)Oc1c2c(nn1C)CCN(C(=O)c1ccc3nc(-c4ccc(F)cc4)c(-c4ccc(F)cc4)nc3c1)C2 [Compound I-284, [2,3-bis(4-fluorophenyl)quinoxalin-6-yl](3-isopropoxy-2-methyl-2,4,6,7-tetrahydro-5H-pyrazolo[4,3-c]pyridin-5-yl)methanone]		2000 to 10000	14	98			
O=C(NCCCc1ncc[nH]1)c1ccc2nc(-c3ccc(F)cc3)c(-c3ccc(F)cc3)nc2c1 [Compound I-178, 2,3-bis(4-fluorophenyl)-N-[3-(1H-imidazol-2-yl)propyl]quinoxaline-6-carboxamide]	2	< 100	97				
CN1CCCC1CCOc1nc2ccc(C(=O)NCCCc3ncc[nH]3)cc2nc1-c1ccc(F)cc1 (stereo not drawn) [Compound I-505, 3-(4-fluorophenyl)-N-[3-(1H-imidazol-2-yl)propyl]-2-[2-(1-methylpyrrolidin-2-yl)ethoxy]quinoxaline-6-carboxamide]	3				> 99	< 100	
COc1cc(-c2nc3cc(C(=O)NCc4ccc5nccn5c4)ccc3nc2OC(C)C)ccc1F [Compound I-426, 3-(4-fluoro-3-methoxyphenyl)-N-(imidazo[1,2-a]pyridin-6-ylmethyl)-2-isopropoxyquinoxaline-6-carboxamide]	0				99	< 100	
CN1CC=C(c2nc3ccc(C(=O)NCCCn4ccnc4)cc3nc2-c2ccccc2)CC1 [Compound I-165, N-[3-(1H-imidazol-1-yl)propyl]-2-(1-methyl-1,2,3,6-tetrahydropyridin-4-yl)-3-phenylquinoxaline-6-carboxamide]		100 to 500	78	-7			
O=C(NCCCc1ncc[nH]1)c1ccc2nc(-c3ccc(F)cc3)c(-c3cc(C(F)(F)F)ccc3Cl)nc2c1 [Compound I-381, 3-[2-chloro-5-(trifluoromethyl)phenyl]-2-(4-fluorophenyl)-N-[3-(1H-imidazol-2-yl)propyl]quinoxaline-6-carboxamide]	2	< 100	96				
CC(C)(C)OC(=O)N1CCN(C2CCN(c3nc4ccc(C(=O)NCCCn5ccnc5)cc4nc3-c3ccccc3)CC2)CC1 [Compound I-66, tert-butyl 4-[1-(6-{[3-(1H-imidazol-1-yl)propyl]carbamoyl}-3-phenylquinoxalin-2-yl)piperidin-4-yl]piperazine-1-carboxylate]		< 100	102	-1			
Cc1ccc(F)c(-c2nc3cc(C(=O)NCCCc4ncc[nH]4)ccc3nc2-c2ccc(F)cc2)c1 [Compound I-507, 3-(2-fluoro-5-methylphenyl)-2-(4-fluorophenyl)-N-[3-(1H-imidazol-2-yl)propyl]quinoxaline-6-carboxamide]	2				97	< 100	
O=C(NCCc1cccnc1)c1ccc2nc(-c3ccccc3)c(-c3ccccc3)nc2c1 [Compound I-93, 2,3-diphenyl-N-[2-(pyridin-3-yl)ethyl]quinoxaline-6-carboxamide]		500 to 1000	52	15			
O=C(NCCc1ncc[nH]1)c1ccc2nc(Cl)c(-c3ccc(F)cc3)nc2c1 [Compound I-102, 2-chloro-3-(4-fluorophenyl)-N-[2-(1H-imidazol-2-yl)ethyl]quinoxaline-6-carboxamide]	> 99	500 to 1000	38				
O=C(NCc1cn2cccnc2n1)c1ccc2nc(-c3ccc(F)cc3)c(-c3ccc(F)cc3)nc2c1 [Compound I-408, 2,3-bis(4-fluorophenyl)-N-(imidazo[1,2-a]pyrimidin-2-ylmethyl)quinoxaline-6-carboxamide]	> 99				85	100 to 500	
O=C(NCCCc1ncc[nH]1)c1ccc2nc(O[C@@H]3CCOC3)c(-c3ccc(F)cc3)nc2c1 [Compound I-372, 3-(4-fluorophenyl)-N-[3-(1H-imidazol-2-yl)propyl]-2-[(3R)-tetrahydrofuran-3-yloxy]quinoxaline-6-carboxamide]	2	< 100	> 99				
O=C(NCCCc1ncc[nH]1)c1ccc2nc(OCc3nccs3)c(-c3ccc(F)cc3)nc2c1 [Compound I-469, 3-(4-fluorophenyl)-N-[3-(1H-imidazol-2-yl)propyl]-2-(1,3-thiazol-2-ylmethoxy)quinoxaline-6-carboxamide]	2				98	< 100	
O=C(NCCc1nccs1)c1ccc2nc(-c3ccc(F)cc3)c(-c3ccc(F)cc3)nc2c1 [Compound I-164, 2,3-Bis(4-fluorophenyl)-N-[2-(1,3-thiazol-2-yl)ethyl]quinoxaline-6-carboxamide]		100 to 500		101			83
Cn1cnc2cc(-c3nc4ccc(C(=O)NCCCn5ccnc5)cc4nc3-c3ccccc3)ccc21 [Compound I-38, N-[3-(1H-imidazol-1-yl)propyl]-2-(1-methyl-1H-benzimidazol-5-yl)-3-phenylquinoxaline-6-carboxamide]		< 100	94	-8			
O=C(NCCCc1nnc[nH]1)c1ccc2nc(-c3ccc(F)cc3)c(-c3cc(Cl)ccc3F)nc2c1 [Compound I-520, 3-(5-chloro-2-fluorophenyl)-2-(4-fluorophenyl)-N-[3-(4H-1,2,4-triazol-3-yl)propyl]quinoxaline-6-carboxamide]	1				89	< 100	
NCc1cccc(-c2nc3cc(C(=O)NCCCn4ccnc4)ccc3nc2-c2ccccc2)c1 [Compound I-120, 3-[3-(Aminomethyl)phenyl]-N-[3-(1H-imidazol-1-yl)propyl]-2-phenylquinoxaline-6-carboxamide]		2000 to 10000		1			47
CN(C)C1CCC(Oc2nc3ccc(C(=O)NCCCc4ncc[nH]4)cc3nc2-c2ccc(F)cc2)CC1 (stereo not drawn) [Compound I-456, 2-{[4-(dimethylamino)cyclohexyl]oxy}-3-(4-fluorophenyl)-N-[3-(1H-imidazol-2-yl)propyl]quinoxaline-6-carboxamide]	2				> 99	< 100	
O=C(NCCCc1ncc[nH]1)c1ccc2nc(Oc3ccccc3)c(-c3ccc(Cl)cc3)nc2c1 [Compound I-273, 3-(4-Chlorophenyl)-N-[3-(1H-imidazol-2-yl)propyl]-2-phenoxyquinoxaline-6-carboxamide]	2	< 100	88				
Cc1nccn1-c1nc2ccc(C(=O)NCCCc3ncc[nH]3)cc2nc1-c1ccc(F)cc1 [Compound I-413, 3-(4-fluorophenyl)-N-[3-(1H-imidazol-2-yl)propyl]-2-(2-methyl-1H-imidazol-1-yl)quinoxaline-6-carboxamide]	3				80	100 to 500	
CN1CCC(Oc2nc3ccc(C(=O)NCCCc4ncc[nH]4)cc3nc2-c2ccc(F)cc2)CC1 [Compound I-345, 3-(4-fluorophenyl)-N-[3-(1H-imidazol-2-yl)propyl]-2-[(1-methylpiperidin-4-yl)oxy]quinoxaline-6-carboxamide]	2	< 100	98				
Cn1ccnc1CCNC(=O)c1ccc2nc(-c3ccc(F)cc3)c(-c3ccc(F)cc3)nc2c1 [Compound I-151, 2,3-Bis(4-fluorophenyl)-N-[2-(1-methyl-1H-imidazol-2-yl)ethyl]quinoxaline-6-carboxamide]		100 to 500	79	96			
O=C(NCCCn1ccnc1)c1ccc2nc(-c3ccccc3)c(-c3ccccc3Cl)nc2c1 [Compound I-281, 3-(2-chlorophenyl)-N-[3-(1H-imidazol-1-yl)propyl]-2-phenylquinoxaline-6-carboxamide]		1000 to 2000	37	6			
CC(C)(C)OC(=O)NCC1(O)CCN(C2CCN(c3nc4ccc(C(=O)NCCCn5ccnc5)cc4nc3-c3ccccc3)CC2)CC1 [Compound I-231, tert-Butyl {[4-hydroxy-1′-(6-{[3-(1H-imidazol-1-yl)propyl]carbamoyl}-3-phenylquinoxalin-2-yl)-1,4′-bipiperidin-4-yl]methyl}carbamate]		< 100	95	-2			
O=C(NCCCn1ccnc1)c1ccc2nc(N3CCC(N4CCOCC4)CC3)c(-c3ccccc3)nc2c1 [Compound I-199, N-[3-(1H-imidazol-1-yl)propyl]-2-[4-(morpholin-4-yl)piperidin-1-yl]-3-phenylquinoxaline-6-carboxamide]		< 100	101	0			
